Assay results from US20100137676A1, “N-ACETYLCYSTEINE AMIDE (NAC AMIDE) FOR TREATMENT OF OXIDATIVE STRESS ASSOCIATED WITH INFERTILITY” (priority 2005, published 2010).

What was measured:
[1] = tested on: porcine oocytes / embryos; assay: Embryo development to 2-cell and blastocyst stage after IVF in supplemented media (Example 1); type: cell-based; settings: for % embryos reaching 2-cell stage of development / % embryos reaching blastocyst stage of development (of those in observed in the 2-cell stage): supplementation 1.0 mM, IVF; for % embryos reaching 2-cell stage of development: control 19; for % embryos reaching blastocyst stage of development (of those in observed in the 2-cell stage): culture to blastocyst stage, control 40
Procedure: (§1) This Example describes an evaluation of the effects of NAC amide, glutathione (GSH) and N-acetylcysteine (NAC) supplementation to incubation and culture media during porcine oocyte maturation, fertilization and embryo culture on various measures of fertilization and embryo development, as well as on the intracellular concentration of GSH.
(§2) Experimental Design: Three trials were conducted, each trial utilizing 30 porcine oocytes per treatment group (90 total oocytes per each of four treatment groups). Oocytes were purchased from Trans Ova Genetics, Sioux City, Iowa. Treatment groups were: 1) Control (no supplemental anti-oxidants); 2) GSH supplementation (1.0 mM); 3) NAC supplementation (1.0 mM); and 4) NAC amide supplementation (1.0 mM).
(§3) In vitro Maturation: Oocytes were maturated for 20 to 24 hours in tissue culture medium 199 with Earle's salts, 0.01 U/mL LH and FSH, 10 ng/mL EGF, antibiotics, and 10% fetal calf serum under mineral oil (Specialty Media, Phillipsburg, N.J.) at 39° C. in an atmosphere of 5% CO2 and then for an additional 20 to 24 h without hormones.
(§4) In vitro Fertilization (IVF) of Oocytes: Cumulus cells by were removed by agitation with 0.1% hyaluronidase, washed and placed in Tris-fertilization medium (113.1 mM NaCl, 3 mM KCl, 7.5 mM CaCl2.2H2O, 20 mM Tris, 11 mM D (+)-glucose, 5 mM sodium pyruvate, 1 mg/mL BSA, 2 mM caffeine) with mineral oil overlay and freeze-thawed spermatozoa were added at a concentration of 2000 spermatozoa/oocyte. The gametes were incubated at 39° C. in an atmosphere of 5% CO2 for approximately 6 hours.
In vitro Culture: Putative zygotes were washed and incubated in NCSU-23 culture medium (108.73 mM NaCl, 4.78 mM KCl, 1.19 mM KH2PO4, 1.19 mM MgSO4.7H2O, 5.5 mM glucose, 1 mM glutamine, 7 mM taurine 5 mM hypotaurine, 25.07 mM NaHCO3, 1.7 mM CaCl2.2H2O, 75 μg/mL Penicillin G, 50 μg/mL Streptomycin, 4 mg/mL BSA, pH 7.4) with mineral oil overlay at 39° C. in an atmosphere of 5% CO2 for 48 hours. After 48 hours, embryos that had undergone the first cell division were placed in fresh NCSU 23 culture media in the same manner as described above until blastocyst formation, 144 hours post-IVF.
The remaining zygotes were cultured through the blastocyst stage of development ([…]) in their respective media and their development and viability progress was recorded (Table 2). NAC amide supplementation of the culture medium enhanced the development of zygotes to the 2-cell stage and further aided the subsequent final percentage of those embryos reaching the 2-cell stage that continued development onto the blastocyst stage (the endpoint of in vitro analysis).

[2] = tested on: porcine oocytes / embryos; assay: Embryo development after intracytoplasmic sperm injection (ICSI) with NAC amide supplementation (Example 4); type: cell-based; settings: of 24 oocytes
From the text: (§5) This Example investigates the effects of NAC amide supplementation to culture media during porcine oocyte maturation, fertilization, and embryo culture on intracellular concentrations of GSH after oocyte maturation, IVF parameters, success of intracytoplasmic sperm injection (ICSI), and embryo development following ICSI and pronuclear microinjection.
(§6) All chemicals, unless otherwise specified, were obtained from Sigma Chemical Company (St. Louis, Mo.) and were of embryo grade quality. Dr. Glenn Goldstein and associates provided the NAC amide. Oocytes (BoMed, Madison, Wis.) were maturated for 20 to 24 h in tissue culture medium 199 supplemented with Earle's salts, 0.01 U/mL LH and FSH, antibiotics, and 10% fetal calf serum under mineral oil (Specialty Media, Phillipsburg, N.J.) at 39° C. in an atmosphere of 5% CO2 and then for an additional 20 to 24 h without hormones.
Cumulus cells were removed by agitation with 0.1% hyaluronidase, washed and placed in microdrops of NCSU-23 culture medium (108.73 mM NaCl, 4.78 mM KCl, 1.19 mM KH2PO4, 1.19 mM MgSO4.7H2O, 5.5 mM glucose, 1 mM glutamine, 7 mM taurine 5 mM hypotaurine, 25.07 mM NaHCO3, 1.7 mM CaCl2.2H2O, 75 μg/mL Penicillin G, 50 μg/mL Streptomycin, 4 mg/mL BSA, pH 7.4) with mineral oil overlay at 39° C. after centrifugation at 15000×g. Frozen-thawed sperm were then placed in an adjacent microdrop. […]

[3] = cell-free system; cited from earlier work
[4] = tested on: mammalian red blood cells (RBCs); settings: cited from earlier work
[5] = tested on: porcine putative zygotes; assay: In vitro fertilization parameter evaluation by nuclear staining of putative zygotes; type: cell-based; settings: 12 hours after IVF; n=4 zygotes per group; preliminary, subjective
Procedure: as §2, §4
In vitro Fertilization Parameter Evaluation: Fertilization was analyzed 12 hours after IVF by fixing the oocytes on a microscope slide with 25% (v:v) acetic acid in ethanol at room temperature for 48 hours. Oocytes were stained with 1% orcein in 45% (v:v) acetic acid and examined using a phase-contrast microscope at 400× magnification.
Fertilization parameters were subjectively examined by nuclear staining samples (n=4) of putative zygotes from each of the treatment groups 12 hours after IVF was complete (Illustration 1, * indicates pronucleus). In the preliminary analysis, only a small number of zygotes were subjected to staining, since the intent of the studies described herein was to assess the number of zygotes that continued development to the 2-cell and blastocyst stages. This analysis was simply to see if any obvious anomalies were occurring.

[6] = tested on: porcine oocytes / embryos; assay: Embryo development after IVF with NAC amide supplementation (Example 4); type: cell-based; settings: of 70 oocytes
From the text: as §5, §6
as §4, with “Cumulus” for “In vitro Fertilization (IVF) of Oocytes: Cumulus”, “cells” for “cells by”, “D(+)-glucose,” for “D (+)-glucose,”, “frozen-thawed” for “freeze-thawed”, “h. […]” for “hours.”

[7] = tested on: porcine oocytes; assay: Glutathione assay: intracellular GSH concentration per oocyte after supplementation of maturation medium; type: cell-based; settings: supplementation 1.0 mM; for GSH concentration/oocyte: porcine oocytes, control 3.19
Procedure: as §1, §2, §3
Glutathione Assay: Oocytes were washed in PBS, frozen, and ruptured using a blunt glass rod in phosphoric acid. The assay was performed as described previously (B. D. Whitaker and J. W. Knight, 2004, Theriogenology, 62:311-322) and the amount of GSH was determined using a standard curve of concentration GSH versus rate of change in absorbency.

| Molecule | % of embryos developing to the 2-cell and blastocyst stages, statistical comparison ([1]; 2-cell P<0.05, blastocyst P<0.10) | % embryos reaching 2-cell stage of development [1] | % embryos reaching blastocyst stage of development (of those in observed in the 2-cell stage) [1] | # of Embryos reaching blastocyst stage of development ([2]; control 2 of 25) | # of Embryos reaching 2-cell stage of development ([2]; control 5 of 25) | reaction with oxidized glutathione (GSSG) [3] | hemoglobin oxidation ([4]; RBCs) | tert.-butylhydroxyperoxide (BuOOH)-induced intracellular oxidation ([4]; RBCs) | restoration of thiol-depleted RBCs ([4]; externally applied, compared with NAC) | changes on fertilization events (nuclear staining) [5] | # of Embryos reaching blastocyst stage of development ([6]; control 6 of 67) | # of Embryos reaching 2-cell stage of development ([6]; control 10 of 67) | greater increase in intracellular GSH compared with supplementation of GSH per se [7] | greater intracellular GSH concentration compared with NAC supplementation [7] | increase in intracellular GSH concentration compared with control [7] | intracellular GSH concentration, statistical comparison with GSH ([7]; P<0.05) | intracellular GSH concentration, statistical comparison with control ([7]; P<0.05) | GSH concentration/oocyte [7] |
| --- | --- | --- | --- | --- | --- | --- | --- | --- | --- | --- | --- | --- | --- | --- | --- | --- | --- | --- |
| N-acetylcysteine amide [NAC amide] | significantly greater % of embryos | 45% | 85% | 5 | 12 | react with oxidized glutathione (GSSG) to generate reduced glutathione (GSH) | protected hemoglobin from oxidation | inhibit | significantly greater than that found using NAC | did not have any noticeable changes | 12 | 22 | 40% | 15% | 2.2 fold | significantly (P<0.05) higher than GSH | significantly (P<0.05) higher than control | 7.03 pmol |
| N[C@@H](CCC(=O)N[C@@H](CS)C(=O)NCC(=O)O)C(=O)O [GSH, glutathione] |  | 25% | 40% |  |  |  |  |  |  | did not have any noticeable changes |  |  |  |  |  |  |  | 4.18 pmol |
| CC(=O)N[C@@H](CS)C(=O)O [NAC, N-acetylcysteine] |  | 30% | 55% |  |  |  |  |  |  | did not have any noticeable changes |  |  |  |  |  |  | significantly (P<0.05) higher than control | 6.00 pmol |
